Settings: Liquid; for speed of sound: Pulse-echo method; for mass density: Vibrating tube method

CCC(C)(C)O [2-methylbutan-2-ol]
Settings | mass density [kg/m3] | speed of sound [m/s]
292.86 K, 15200 kPa | – | 1290.8
292.86 K, 30390 kPa | – | 1369.7
292.86 K, 45590 kPa | – | 1440.9
292.86 K, 60790 kPa | – | 1506
292.86 K, 75990 kPa | – | 1566.1
292.86 K, 91180 kPa | – | 1623.1
292.86 K, 101320 kPa | – | 1658.5
292.9 K, 100 kPa | – | 1196.7
293.15 K, 101.33 kPa | 808.891 | –
298.15 K, 101.33 kPa | 804.3 | 1177.8
298.15 K, 15200 kPa | – | 1274.2
298.15 K, 30390 kPa | – | 1354.4
298.15 K, 45590 kPa | – | 1426.3
298.15 K, 60790 kPa | – | 1491.5
298.15 K, 75990 kPa | – | 1551.9
298.15 K, 91180 kPa | – | 1608.7
298.15 K, 101320 kPa | – | 1644.4
298.17 K, 100 kPa | – | 1177.8
303.13 K, 30390 kPa | – | 1339.7
303.13 K, 45590 kPa | – | 1412.3
303.13 K, 91180 kPa | – | 1595.6
303.13 K, 101320 kPa | – | 1631.4
303.14 K, 15200 kPa | – | 1258.5
303.14 K, 60790 kPa | – | 1478.1
303.14 K, 75990 kPa | – | 1538.6
303.15 K, 100 kPa | – | 1159.8
303.16 K, 101.33 kPa | 799.66 | –
308.12 K, 100 kPa | – | 1141.9
308.12 K, 15200 kPa | – | 1242.6
308.12 K, 30390 kPa | – | 1324.9
308.12 K, 45590 kPa | – | 1398
308.12 K, 60790 kPa | – | 1464.7
308.12 K, 75990 kPa | – | 1525.6
308.12 K, 91180 kPa | – | 1582.6
308.12 K, 101320 kPa | – | 1619
308.16 K, 101.33 kPa | 794.954 | –
313.1 K, 100 kPa | – | 1124
313.1 K, 45590 kPa | – | 1384.1
313.1 K, 60790 kPa | – | 1451.2
313.1 K, 75990 kPa | – | 1512.8
313.1 K, 91180 kPa | – | 1569.9
313.11 K, 15200 kPa | – | 1226.6
313.11 K, 30390 kPa | – | 1310.1
313.11 K, 101320 kPa | – | 1606.2
313.15 K, 101.33 kPa | 790.176 | –
318.15 K, 101.33 kPa | 785.312 | –
318.18 K, 15200 kPa | – | 1210.4
318.18 K, 60790 kPa | – | 1437.9
318.18 K, 75990 kPa | – | 1499.8
318.18 K, 101320 kPa | – | 1593.9
318.19 K, 30390 kPa | – | 1295.2
318.19 K, 45590 kPa | – | 1370.1
318.19 K, 91180 kPa | – | 1557.2
318.29 K, 100 kPa | – | 1105.3

OC1CCCC1 [cyclopentanol]
Settings | mass density [kg/m3] | speed of sound [m/s]
292.85 K, 15200 kPa | – | 1519.5
292.85 K, 30390 kPa | – | 1576.3
292.85 K, 45590 kPa | – | 1629.1
292.85 K, 60790 kPa | – | 1677.8
292.85 K, 75990 kPa | – | 1723.9
292.85 K, 91180 kPa | – | 1767.2
292.85 K, 101320 kPa | – | 1795
292.86 K, 100 kPa | – | 1454.4
293.15 K, 101.33 kPa | 946.792 | –
298.14 K, 15200 kPa | – | 1500.4
298.14 K, 30390 kPa | – | 1557.8
298.14 K, 45590 kPa | – | 1611.5
298.14 K, 60790 kPa | – | 1661
298.14 K, 75990 kPa | – | 1707.2
298.14 K, 91180 kPa | – | 1751.2
298.14 K, 101320 kPa | – | 1779.3
298.15 K, 101.33 kPa | 942.856 | 1435.1
298.17 K, 100 kPa | – | 1435
303.12 K, 15200 kPa | – | 1482.2
303.12 K, 30390 kPa | – | 1540.4
303.12 K, 45590 kPa | – | 1595.1
303.12 K, 60790 kPa | – | 1645.6
303.12 K, 75990 kPa | – | 1692.6
303.12 K, 91180 kPa | – | 1737.2
303.12 K, 101320 kPa | – | 1765.5
303.15 K, 100 kPa | – | 1416.9
303.16 K, 101.33 kPa | 938.874 | –
308.11 K, 15200 kPa | – | 1464.8
308.11 K, 30390 kPa | – | 1524.5
308.11 K, 45590 kPa | – | 1579.4
308.11 K, 60790 kPa | – | 1630.6
308.11 K, 75990 kPa | – | 1678
308.11 K, 101320 kPa | – | 1751.6
308.12 K, 91180 kPa | – | 1723
308.13 K, 100 kPa | – | 1398.7
308.15 K, 101.33 kPa | 934.843 | –
313.09 K, 15200 kPa | – | 1447.6
313.09 K, 30390 kPa | – | 1508.3
313.09 K, 45590 kPa | – | 1564
313.09 K, 60790 kPa | – | 1616.1
313.09 K, 75990 kPa | – | 1664.1
313.09 K, 91180 kPa | – | 1709.5
313.09 K, 101320 kPa | – | 1738.6
313.12 K, 100 kPa | – | 1380.6
313.15 K, 101.33 kPa | 930.754 | –
318.15 K, 101.33 kPa | 926.613 | –
318.19 K, 15200 kPa | – | 1430.8
318.19 K, 45590 kPa | – | 1548.6
318.19 K, 60790 kPa | – | 1601.4
318.19 K, 75990 kPa | – | 1650.3
318.19 K, 101320 kPa | – | 1725.3
318.2 K, 30390 kPa | – | 1492.4
318.2 K, 91180 kPa | – | 1695.8
318.29 K, 100 kPa | – | 1361.8

CCCCCO [pentan-1-ol]
Settings | mass density [kg/m3] | speed of sound [m/s]
292.81 K, 100 kPa | – | 1293.9
292.88 K, 76010 kPa | – | 1611.2
292.88 K, 91210 kPa | – | 1660
292.88 K, 101330 kPa | – | 1691.4
292.91 K, 45590 kPa | – | 1501.6
292.91 K, 60810 kPa | – | 1558.3
292.95 K, 15200 kPa | – | 1371.5
292.96 K, 30400 kPa | – | 1439.7
293.15 K, 101.33 kPa | 814.5 | –
297.93 K, 30400 kPa | – | 1424.8
297.93 K, 45600 kPa | – | 1487.1
297.93 K, 60800 kPa | – | 1544.3
297.93 K, 75990 kPa | – | 1597.6
297.93 K, 91190 kPa | – | 1647.3
297.93 K, 101340 kPa | – | 1678.7
297.94 K, 15200 kPa | – | 1355.5
298.15 K, 101.33 kPa | 810.84 | 1275.2
298.18 K, 100 kPa | – | 1275.1
303.05 K, 45600 kPa | – | 1472.8
303.06 K, 15200 kPa | – | 1339.3
303.06 K, 30410 kPa | – | 1409.7
303.06 K, 91180 kPa | – | 1634.6
303.06 K, 101330 kPa | – | 1666.3
303.1 K, 60790 kPa | – | 1530.6
303.1 K, 76000 kPa | – | 1584.1
303.15 K, 100 kPa | – | 1258
303.15 K, 101.33 kPa | 807.155 | –
308.04 K, 45600 kPa | – | 1459
308.05 K, 76000 kPa | – | 1571.6
308.06 K, 60800 kPa | – | 1517.5
308.06 K, 91210 kPa | – | 1622.5
308.06 K, 101330 kPa | – | 1654.2
308.08 K, 15200 kPa | – | 1323.5
308.08 K, 30400 kPa | – | 1394.8
308.13 K, 100 kPa | – | 1240.9
308.15 K, 101.33 kPa | 803.442 | –
313.02 K, 101340 kPa | – | 1642.9
313.03 K, 30400 kPa | – | 1380.7
313.03 K, 60790 kPa | – | 1504.8
313.03 K, 75990 kPa | – | 1559.2
313.03 K, 91190 kPa | – | 1610.7
313.04 K, 15210 kPa | – | 1308.5
313.05 K, 45600 kPa | – | 1445.5
313.11 K, 100 kPa | – | 1224.1
313.15 K, 101.33 kPa | 799.705 | –
318.15 K, 101.33 kPa | 795.912 | –
318.49 K, 76000 kPa | – | 1546.4
318.49 K, 91200 kPa | – | 1598.1
318.5 K, 60800 kPa | – | 1491.2
318.51 K, 45590 kPa | – | 1431.3
318.51 K, 101330 kPa | – | 1630.8
318.52 K, 15200 kPa | – | 1292
318.52 K, 30400 kPa | – | 1365.4
318.68 K, 100 kPa | – | 1205.5

From the NIST ThermoML archive (doi:10.1021/je8009418)
